Test results from patent US20100248390A1, “COMPOSITIONS AND METHODS FOR IDENTIFYING LIGANDS OF ODORANT RECEPTORS” (DUKE UNIVERSITY, priority 2009, published 2010).
pEC50: −log10 of the molar value. Like-named read-outs stand apart in the source and are kept apart here. Each block holds one molecule with its values, some of them ahead of it.

What was measured:
Experiment in all cases: CRE-luciferase assay of odorant receptor activation (Dual-Glo, Hana3A cells, RTP1S), dose-response EC50
Assay type in all cases: cell-based
[1] = system: mouse odorant receptors (ORs); conditions: for log EC50, MOR271-1 / log EC50 (Table 4 value), MOR271-1: receptor MOR271-1
From the text: (§1) Cloning mouse and human ORs. […] OR open reading frames were amplified from genomic DNA using proofreading KOD DNA polymerase (Toyobo/Novagen) and subcloned into pCI expression vectors (Promega) containing the first 20 residues of human rhodopsin (Rho tag). The sequences of the cloned receptors were verified by sequencing (3100 Genetic Analyzer, ABI Biosystems). Immunocytochemistry and FACS analysis. […] For FACS analysis, phycoerythrin (PE)-conjugated anti-mouse IgG (Jackson Immunologicals) was used. In order to monitor the transfection efficiency, Green Fluorescent Protein (GFP) was co-transfected with the OR. The intensity of receptor cell surface expression was calculated as the ratio of PE and GFP expression. 7-aminoactinomycin D (Calbiochem) was added before flow cytometry to mark dead cells which were excluded from the analysis. The gate and mean of PE positive cells was normalized by GFP values. Luciferase assay. […] Odorant receptor activation leads to an increase in intracellular cAMP; CRE-luciferase (Stratagene) was used to measure this change. […] Hana3A cells were plated on poly-D-lysine-coated 96-well plates (BioCoat; Becton Dickinson). […] For each 96-well plate transfected, 1 μg of CRE-Luc, 1 μg of pRL-SV40, 5 μg of odorant receptor plasmid, and 1 μg of RTP1S was used. Approximately 24 hours post transfection, the medium was replaced with CD293 chemically defined medium (Gibco) and the plate was incubed for 30 min at 37° C. The medium was then replaced with 25 μL of odorant solution diluted in CD293 and the plate was incubated for 4 hrs at 37° C. and 5% CO2. The manufacturer's protocols for measuring luciferase and Renilla luciferase activities was followed. […] All luminescence values were divided by the Renilla Luciferase activity to control for transfection efficiency in a given well. Normalized luciferase activity was calculated using the formula (LN−Lmin)/(Lmax−Lmin), where LN is the luminescence of firefly luciferase in response to the odorant, Lmin is the minimum luciferase value on a plate or set of plates, and Lmax is the maximum luciferase value on a plate or set of plates. The data was analyzed using Microsoft Excel and GraphPad Prism 4. Screening procedure. The entire OR library was stimulated with eight separate odorant mixtures formed from 93 odorants (FIG. 12). […] A comparison between the 93 individual odorants at a 100 μM dose and a no-odor control was performed for all 290 […]. Each comparison was performed in triplicate; statistical significance was assessed by t-test (uncorrected for multiple comparisons). […] A single odorant was used on each plate to avoid cross-contamination, and each OR odorant dose was tested at least three times. The data was fit to a sigmoidal curve. […] Physicochemical descriptors. […] Receptor descriptors. […] Correlations between descriptors and responses. […] All odorants for which there were fewer than 3 responsive receptors were eliminated. For all remaining odorant pairs the Pearson correlation between EC50 vectors and the Euclidean distance between descriptor vectors was calculated. The Pearson correlation between these two sets of distances was then measured. Optimizing descriptors. […] In this method one begins with an empty set of descriptors. Each descriptor is combined with the previous set of descriptors and correlation values are computed for all of these candidate sets of descriptors. To reduce overfitting, the data is randomly divided into ten subsets and correlation values are computed for each leave-one out subset. The final correlation coefficient for each set of descriptors is the average of the correlation coefficients for each subset. The set with the best correlation coefficient then becomes the new set of descriptors and the process is repeated until the correlation coefficient increases by less than 0.004 in three consecutive iterations.

[2] = target: T1, human odorant receptors (ORs) (Homo sapiens, UniProt Q8WZ94); conditions: receptor OR5P3; 0 = no response; read-out: log EC50, OR5P3 (converted)
T1 construct: OR open reading frames were amplified from genomic DNA; expressed in transfected cells; host or cells: Hana3A cells, co-transfected with RTP1S, CRE-luciferase and pRL-SV40
T1 sequence (Q8WZ94 1-311): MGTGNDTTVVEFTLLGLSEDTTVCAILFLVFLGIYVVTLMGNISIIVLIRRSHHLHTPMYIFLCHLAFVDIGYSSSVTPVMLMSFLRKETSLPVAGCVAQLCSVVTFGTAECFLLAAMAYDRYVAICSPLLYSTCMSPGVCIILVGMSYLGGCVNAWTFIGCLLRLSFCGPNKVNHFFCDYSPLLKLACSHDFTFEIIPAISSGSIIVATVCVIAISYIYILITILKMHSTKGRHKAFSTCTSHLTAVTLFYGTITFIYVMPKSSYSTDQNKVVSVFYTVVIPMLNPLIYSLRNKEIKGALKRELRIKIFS
From the text: as §1, with “For all remaining odorant pairs the Pearson correlation between EC50 vectors and the Euclidean distance between descriptor vectors was calculated.” left out, “subset.” for “subset. The set with the best correlation coefficient then becomes the new set of descriptors and the process is repeated until the correlation coefficient increases by less than 0.004 in three consecutive iterations.”
(§2) The entire OR library was stimulated with one of 8 odorant mixtures drawn from 93 odorants chosen to represent diverse functional groups, sizes, and structures (Table 3). Each mixture was applied at five different concentrations. […] The 93 odorants were then applied individually at 100 μM to the 290 mixture-responsive ORs.

[3] = target: T2, human odorant receptors (ORs) (Homo sapiens, UniProt Q9Y3N9); conditions: for EC50: receptor OR2W1
T2 construct: OR open reading frames were amplified from genomic DNA; expressed in transfected cells; host or cells: Hana3A cells, co-transfected with RTP1S, CRE-luciferase and pRL-SV40
T2 sequence (Q9Y3N9 1-320): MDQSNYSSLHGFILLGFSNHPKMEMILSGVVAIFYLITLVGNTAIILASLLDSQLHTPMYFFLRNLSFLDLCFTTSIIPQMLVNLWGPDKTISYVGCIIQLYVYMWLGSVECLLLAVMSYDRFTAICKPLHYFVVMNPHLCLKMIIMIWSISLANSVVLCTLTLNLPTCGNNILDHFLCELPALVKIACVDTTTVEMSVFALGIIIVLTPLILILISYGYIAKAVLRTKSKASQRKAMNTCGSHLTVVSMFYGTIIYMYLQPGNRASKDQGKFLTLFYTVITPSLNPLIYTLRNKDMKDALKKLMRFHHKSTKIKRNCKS
From the text: as §1, with “For all remaining odorant pairs the Pearson correlation between EC50 vectors and the Euclidean distance between descriptor vectors was calculated.” left out, “subset.” for “subset. The set with the best correlation coefficient then becomes the new set of descriptors and the process is repeated until the correlation coefficient increases by less than 0.004 in three consecutive iterations.”
as §2

[4] = target: T3, mouse odorant receptors (ORs) (Mus musculus, UniProt P23275)
T3 construct: OR open reading frames were amplified from genomic DNA; expressed in transfected cells; host or cells: Hana3A cells, co-transfected with RTP1S, CRE-luciferase and pRL-SV40
T3 sequence (P23275 1-312): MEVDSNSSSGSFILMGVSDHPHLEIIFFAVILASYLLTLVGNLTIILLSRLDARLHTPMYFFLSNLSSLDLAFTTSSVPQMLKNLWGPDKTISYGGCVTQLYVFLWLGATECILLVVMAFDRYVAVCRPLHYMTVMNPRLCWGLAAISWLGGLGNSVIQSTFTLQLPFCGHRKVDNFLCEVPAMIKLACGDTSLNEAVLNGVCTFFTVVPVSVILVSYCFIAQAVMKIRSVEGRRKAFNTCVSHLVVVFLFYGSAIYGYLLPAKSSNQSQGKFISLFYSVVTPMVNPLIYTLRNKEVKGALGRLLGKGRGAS
From the text: as §1

[5] = target: T4, human odorant receptors (ORs) (Homo sapiens, UniProt Q9P1Q5); conditions: for EC50: receptor OR1A1
T4 construct: OR open reading frames were amplified from genomic DNA; expressed in transfected cells; host or cells: Hana3A cells, co-transfected with RTP1S, CRE-luciferase and pRL-SV40
T4 sequence (Q9P1Q5 1-309): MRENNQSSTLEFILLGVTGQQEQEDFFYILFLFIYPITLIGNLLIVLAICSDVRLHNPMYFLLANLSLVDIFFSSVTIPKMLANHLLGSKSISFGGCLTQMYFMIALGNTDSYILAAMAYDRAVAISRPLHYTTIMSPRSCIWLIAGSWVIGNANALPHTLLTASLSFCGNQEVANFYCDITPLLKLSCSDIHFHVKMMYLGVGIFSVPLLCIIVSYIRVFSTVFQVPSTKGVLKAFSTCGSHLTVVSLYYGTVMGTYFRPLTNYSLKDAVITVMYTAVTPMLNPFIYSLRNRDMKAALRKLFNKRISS
From the text: as §1, with “For all remaining odorant pairs the Pearson correlation between EC50 vectors and the Euclidean distance between descriptor vectors was calculated.” left out, “subset.” for “subset. The set with the best correlation coefficient then becomes the new set of descriptors and the process is repeated until the correlation coefficient increases by less than 0.004 in three consecutive iterations.”
as §2

[6] = receptor MOR41-1, 0 = no response
[7] = 0 = no response, read-out: log EC50, OR2W1 (converted)
[8] = receptor MOR203-1, 0 = no response
[9] = receptor MOR272-1, 0 = no response
[10] = 0 = no response, read-out: log EC50, OR1A1 (converted)

Compound: CCCCCCO [1-Hexanol]
- log EC50, MOR41-1 [1, 6]: −4.064
- EC50 [2]: 175 µM
- EC50 [3, 7]: 14.1 µM

Compound: O=C1Cc2ccccc2O1 [2-Counpronon ?]
- log EC50, MOR1-1 ([1]; receptor MOR1-1, 0 = no response): −4.138
- log EC50, MOR41-1 [1, 6]: −3.96
- log EC50, MOR139-1 ([1]; receptor MOR139-1, 0 = no response): −3.585
- log EC50, MOR258-1 ([1]; receptor MOR258-1, 0 = no response): −4.268
- log EC50, MOR259-1 ([1]; receptor MOR259-1, 0 = no response): −3.63
- log EC50, MOR256-17 ([4]; receptor MOR256-17, 0 = no response): −4.575

Compound: CCC(=O)C(=O)CC [34-Hexanedione]
- log EC50 (Table 4 value), MOR41-1 ([1]; receptor MOR41-1): −4.692
- log EC50 (Table 4 value), MOR271-1 [1]: −4.734
- pEC50 [4]: 4.92
- pEC50 [3]: 4.78

Compound: C=CCc1ccccc1 [Allyl benzene]
- log EC50 (Table 4 value), MOR105-1 ([1]; receptor MOR105-1): −3.332
- log EC50 (Table 4 value), MOR106-1 ([1]; receptor MOR106-1): −3.921
- pEC50 [4]: 4.15

Compound: O=C(c1ccccc1)c1ccccc1 [Benzophenone]
- log EC50 (Table 4 value), MOR162-1 ([1]; receptor MOR162-1): −3.685
- log EC50 (Table 4 value), MOR259-1 ([1]; receptor MOR259-1): −4.442
- log EC50 (Table 4 value), MOR269-1 ([1]; receptor MOR269-1): −3.652
- pEC50 [5]: 4.01
- pEC50 [3]: 4.54

Second part, the molecule after the results:

- log EC50, MOR203-1 [1, 8]: −4.76
- log EC50, MOR271-1 ([1]; 0 = no response): −4.581
- log EC50, MOR272-1 [1, 9]: −5.073
- EC50 [5, 10]: 39.9 µM
- EC50 [3, 7]: 7.21 µM
Compound: CCCCCC(C)=O [2-Haptonone]

- log EC50, MOR203-1 [1, 8]: −5.064
- EC50 [5, 10]: 265 µM
- EC50 [3, 7]: 19.9 µM
Compound: CCCCCCCC(C)=O [2-Noranone]

- log EC50, MOR203-1 [1, 8]: −5.023
- log EC50, MOR272-1 [1, 9]: −4.575
- EC50 [5, 10]: 42.7 µM
- EC50 [3, 7]: 39.9 µM
Compound: CCCCCCC(C)=O [2-Octanone]

- log EC50, MOR203-1 [1, 8]: −4.099
- log EC50, MOR271-1 ([1]; 0 = no response): −5.235
- log EC50, MOR272-1 [1, 9]: −5.221
- EC50 [5, 10]: 19.4 µM
- EC50 [3, 7]: 33.3 µM
Compound: CCCCC(=O)CC [3-Haptonone]

- log EC50 (Table 4 value), MOR203-1 ([1]; receptor MOR203-1): −4.4
- log EC50 (Table 4 value), MOR271-1 [1]: −4.139
- log EC50 (Table 4 value), MOR272-1 ([1]; receptor MOR272-1): −4.197
- EC50 ([5]; read-out: log EC50 (Table 4 value), OR1A1 (converted)): 5.12 µM
- EC50 ([3]; read-out: log EC50 (Table 4 value), OR2W1 (converted)): 9.55 µM
Compound: CCCCCC(=O)CC [3-Octanone]

- log EC50, MOR41-1 [1, 6]: −5.008
- log EC50, MOR271-1 ([1]; 0 = no response): −4.824
- EC50 ([4]; receptor MOR256-17, 0 = no response, read-out: log EC50, MOR256-17 (converted)): 14.5 µM
- EC50 [3, 7]: 434 µM
Compound: CCCC(=O)C(C)=O [23-Haxanedione]
